The results in this text go back to ChEMBL document CHEMBL1201862, “PubChem BioAssay data set” (2004).

The target in assay [1] is Glutathione-S-transferase (Schistosoma japonicum, UniProt Q26513). Description: GST-antibody interaction or FRET quenching – biochemical, TR-FRET, artefact control for Vif-APOBEC3G degradation inhibitor project, dose response (AID 1117362). The format is functional.
Assay [2] deals with T1, DNA repair and recombination protein RAD54-like (Homo sapiens, UniProt Q92698).
T1 sequence (Q92698 whole entry): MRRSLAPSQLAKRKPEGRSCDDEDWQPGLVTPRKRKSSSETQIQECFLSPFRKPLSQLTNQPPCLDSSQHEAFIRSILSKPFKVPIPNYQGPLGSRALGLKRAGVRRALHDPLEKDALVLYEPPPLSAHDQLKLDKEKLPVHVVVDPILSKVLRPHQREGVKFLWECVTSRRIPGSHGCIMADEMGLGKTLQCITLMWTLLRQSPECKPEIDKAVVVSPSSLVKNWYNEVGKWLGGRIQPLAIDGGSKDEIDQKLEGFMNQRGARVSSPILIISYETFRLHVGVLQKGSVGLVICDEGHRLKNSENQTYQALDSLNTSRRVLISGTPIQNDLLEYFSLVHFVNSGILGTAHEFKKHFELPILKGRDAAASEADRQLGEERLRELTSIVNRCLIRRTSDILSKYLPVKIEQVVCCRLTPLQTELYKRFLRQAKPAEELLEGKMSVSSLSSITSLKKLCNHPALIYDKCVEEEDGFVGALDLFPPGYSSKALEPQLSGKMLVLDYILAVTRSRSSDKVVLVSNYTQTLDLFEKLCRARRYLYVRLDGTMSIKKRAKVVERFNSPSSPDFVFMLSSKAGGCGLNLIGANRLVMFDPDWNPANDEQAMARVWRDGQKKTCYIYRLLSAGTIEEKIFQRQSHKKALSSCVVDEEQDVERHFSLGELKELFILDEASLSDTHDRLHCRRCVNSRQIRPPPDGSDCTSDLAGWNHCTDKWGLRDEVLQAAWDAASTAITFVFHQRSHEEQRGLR
Nature of the assay: RAD54 Holliday junction migration blockers – biochemical, fluorescence, cherry-picked samples, dose series, confirmation (AID 651657). In kind it is functional.

Assay [3] deals with Protein-tyrosine kinase 2-beta (Homo sapiens, UniProt Q14289).
Protein-tyrosine kinase 2-beta, sequence (Q14289 whole entry): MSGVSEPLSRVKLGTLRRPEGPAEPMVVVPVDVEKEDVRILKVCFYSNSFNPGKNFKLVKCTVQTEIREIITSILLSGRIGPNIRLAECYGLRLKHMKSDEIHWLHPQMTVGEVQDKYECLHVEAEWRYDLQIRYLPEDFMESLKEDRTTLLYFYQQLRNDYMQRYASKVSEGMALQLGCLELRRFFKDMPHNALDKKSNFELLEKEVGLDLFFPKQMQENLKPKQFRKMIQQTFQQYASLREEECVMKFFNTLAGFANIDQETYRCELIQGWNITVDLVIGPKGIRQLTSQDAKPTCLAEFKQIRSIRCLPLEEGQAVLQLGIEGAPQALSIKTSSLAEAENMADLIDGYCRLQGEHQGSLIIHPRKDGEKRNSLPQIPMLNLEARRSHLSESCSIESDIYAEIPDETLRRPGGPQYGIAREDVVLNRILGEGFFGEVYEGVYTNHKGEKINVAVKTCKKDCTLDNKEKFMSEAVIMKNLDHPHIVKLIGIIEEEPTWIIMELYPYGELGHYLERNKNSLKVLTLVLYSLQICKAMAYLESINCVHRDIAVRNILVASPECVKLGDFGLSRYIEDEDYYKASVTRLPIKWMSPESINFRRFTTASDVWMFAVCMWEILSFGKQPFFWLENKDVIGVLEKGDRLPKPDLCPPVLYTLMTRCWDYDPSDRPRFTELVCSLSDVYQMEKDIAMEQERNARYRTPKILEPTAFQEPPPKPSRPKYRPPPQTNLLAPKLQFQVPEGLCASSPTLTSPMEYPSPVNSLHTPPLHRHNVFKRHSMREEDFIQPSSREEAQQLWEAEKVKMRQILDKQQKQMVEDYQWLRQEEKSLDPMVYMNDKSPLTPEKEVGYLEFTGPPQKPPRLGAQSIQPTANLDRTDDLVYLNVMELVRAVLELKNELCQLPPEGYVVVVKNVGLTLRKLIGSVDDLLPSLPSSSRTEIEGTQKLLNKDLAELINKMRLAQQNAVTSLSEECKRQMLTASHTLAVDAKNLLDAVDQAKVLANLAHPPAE
The target of assay [4] is T2, Rac GTPase-activating protein 1 (Homo sapiens, UniProt Q9H0H5).
T2 sequence (Q9H0H5 whole entry): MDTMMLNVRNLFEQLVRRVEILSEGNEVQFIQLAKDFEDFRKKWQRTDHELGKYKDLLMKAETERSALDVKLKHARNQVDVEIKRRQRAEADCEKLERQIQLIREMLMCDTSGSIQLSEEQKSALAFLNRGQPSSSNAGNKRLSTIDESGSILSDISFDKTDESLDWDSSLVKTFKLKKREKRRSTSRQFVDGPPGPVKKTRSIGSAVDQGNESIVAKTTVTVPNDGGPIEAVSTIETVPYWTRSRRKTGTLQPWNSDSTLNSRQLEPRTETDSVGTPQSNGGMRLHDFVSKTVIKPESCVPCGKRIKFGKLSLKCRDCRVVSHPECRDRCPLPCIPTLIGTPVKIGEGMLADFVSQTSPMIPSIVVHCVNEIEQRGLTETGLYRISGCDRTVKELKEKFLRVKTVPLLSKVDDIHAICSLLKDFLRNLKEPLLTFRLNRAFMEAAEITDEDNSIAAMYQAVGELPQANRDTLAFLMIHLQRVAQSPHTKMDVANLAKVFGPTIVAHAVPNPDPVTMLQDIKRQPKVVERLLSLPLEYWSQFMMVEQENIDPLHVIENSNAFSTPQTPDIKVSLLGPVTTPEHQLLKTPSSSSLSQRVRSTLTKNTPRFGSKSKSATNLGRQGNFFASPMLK
Nature of the assay: blockers of MgcRacGAP-driven Rac1 GTP hydrolysis – biochemical, ADP Hunter fluorescence, primary and confirmatory, confirmation (AID 624330). In kind it is functional.

A further assay has as its target Estrogen receptor beta (Homo sapiens, UniProt Q92731). Description: blockers of SRC-3 recruitment to ERβ – biochemical, ELISA, streptavidin-HRP readout, orthogonal assay, confirmation (AID 1060). In general terms: An ELISA detects its analyte on a solid surface through an enzyme-linked reagent.
A further assay has as its target Nonstructural protein 1 (Influenza A virus, UniProt Q194T2). In kind it is functional, Influenza A virus (A/California/07/2009(H1N1)).
The target in assay [5] is FAD-linked sulfhydryl oxidase ALR (Homo sapiens, UniProt P55789). Description: ALR-catalysed DTT oxidation blockers – biochemical, H2O2 detection, luminescence, cherry-pick, dose response (AID 493248).
FAD-linked sulfhydryl oxidase ALR, sequence (P55789 whole entry): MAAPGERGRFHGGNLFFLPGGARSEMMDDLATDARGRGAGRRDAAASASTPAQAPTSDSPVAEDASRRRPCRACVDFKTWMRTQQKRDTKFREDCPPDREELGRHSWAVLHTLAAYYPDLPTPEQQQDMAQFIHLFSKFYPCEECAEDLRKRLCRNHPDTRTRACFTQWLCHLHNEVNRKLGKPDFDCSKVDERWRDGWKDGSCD
A short description of assay [6]: loss of viability in HepG2 cells – cell-based, CellTiter-Glo, cherry-picked, cytotoxicity control for Shn3 inhibitor project, dose response (AID 624134). The format is functional. (In general: ATP-based viability assays read luminescence as a measure of living cells.)
Assay [7] is described as follows: MIN6 cell viability loss – mouse insulinoma, cytotoxicity control, dose response (AID 2122).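 Also: confirmatory high-throughput counterscreen run to flag cytotoxic compounds.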 In kind it is functional.
Assay [8] is described as follows: non-specific 3'UTR reporter inhibition in Clone20-Shn3RL – cell-based, Renilla luciferase, cherry-picked, counter-screen for Shn3 inhibitor project, dose response (AID 624133). In kind it is functional. For orientation: The purpose of a counterscreen is to sort out artefacts and off-target activity.
Assay [9] is described as follows: viability loss in human hepatoma cells – cell-based, CellTiter-Glo luminescence, cherry-pick, set 2, cytotoxicity control, dose response (AID 743395). In kind it is functional.
A short description of assay [10]: decrease of insulin promoter-GFP reporter – imaging, high-content screening, mouse beta cells (AID 1628). The following applies: MIN6. The format is functional.
Assay [11] is described as follows: reduction of Shn3 3'UTR-driven luciferase in osteoblasts – cell-based, Clone20 osteoblasts, firefly luciferase, cherry-picked, dose response (AID 624132).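 Also: firefly luciferase luminescence from reporter carrying the Shn3 3'UTR in osteoblasts.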 In kind it is functional.
Another assay concerns INS1. Nature of the assay: INS-1E survival protection against cytokine death – cell-based, luminescence, retest, dose response (AID 449756).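 Also: cell death triggered by IL-1 beta plus TNF-alpha plus IFN-gamma mixture; protective hits raise ATP signal compared with cytokine alone wells.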 The following applies: Rattus norvegicus. In kind it is functional.
Assay [12] in a line: general mammalian cell viability loss – activator set, cherry-pick, cytotoxicity control for miR-122 modulator project, dose response (AID 720690).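 Also: HEK293T human cells scored for general mammalian cytotoxicity.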 In kind it is functional, cell-based.
The nature of assay [13]: activation of miR-122 Renilla sensor silencing – cell-based, Huh7 psiCHECK-miR122, Renilla luciferase, cherry-picked, dose response (AID 651956).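 Also: huh7 hepatoma cells stably carrying a psiCHECK-2 miR-122 sensor plasmid; renilla luciferase signal reporting endogenous miR-122 activity after 48 h compound exposure.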 The format is functional.
The nature of assay [14]: toxicity to human hepatoma HepG2 cells – cell-based, cherry-picked samples, cytotoxicity control, dose response (AID 1159577). In kind it is functional.
Assay [15] can be described thus: A2780 cell killing – plate reader, dry powder samples, cytotoxicity control, dose response (AID 743046). The format is functional, cell-based.
Assay [16] in a line: general cell-killing toxicity readout – plate reader, dry powder samples, cytotoxicity control for PAX8 inhibitor project, dose response (AID 743021). In kind it is functional, cell-based.
The nature of assay [17]: P. falciparum Dd2 growth inhibitors, dose response, SYBR Green, cherry-picked samples (AID 1159567). The format is functional, cell-based.
The nature of assay [18]: OVCAR8 cell viability loss – plate reader, dry powder samples, PAX8 project, dose response (AID 743197). In kind it is functional, cell-based. The following applies: OVCAR-8.
Assay [19] in a line: OVCAR-3 cell viability loss – plate reader, dry powder samples, PAX8 inhibitor project, dose response (AID 743044). The format is functional, cell-based.
The target in another assay is Paired box protein Pax-8 (Homo sapiens, UniProt Q06710). Nature of the assay: PAX8 transcriptional activity inhibition in RMG-I – RMG-I cells, luciferase, cherry-pick, dose response (AID 687027).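 Also: luciferase reporter driven by Pax8 target thyroperoxidase promoter measured by SteadyGlo luminescence.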 The format is functional, cell-based.
Paired box protein Pax-8, sequence (Q06710 whole entry): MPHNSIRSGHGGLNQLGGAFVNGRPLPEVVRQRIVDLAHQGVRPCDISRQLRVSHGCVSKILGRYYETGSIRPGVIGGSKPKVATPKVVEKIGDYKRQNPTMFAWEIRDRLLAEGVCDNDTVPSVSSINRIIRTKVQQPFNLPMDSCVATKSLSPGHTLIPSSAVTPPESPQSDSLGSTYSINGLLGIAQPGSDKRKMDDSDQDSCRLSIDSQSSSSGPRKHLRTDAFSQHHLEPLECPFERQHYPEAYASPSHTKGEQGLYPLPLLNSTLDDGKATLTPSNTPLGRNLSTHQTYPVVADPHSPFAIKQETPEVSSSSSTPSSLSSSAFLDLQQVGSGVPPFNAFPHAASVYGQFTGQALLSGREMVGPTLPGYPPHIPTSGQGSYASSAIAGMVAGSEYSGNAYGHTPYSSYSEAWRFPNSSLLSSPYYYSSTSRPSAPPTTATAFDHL
The nature of assay [20]: IGROV1 cell killing – plate reader, dry powder samples, PAX8 inhibitor project, dose response (AID 743043). The following applies: IGROV-1. The format is functional, cell-based.
Assay [21] is described as follows: toxicity toward immortalized ovarian surface epithelium – cell-based, plate reader, dry powder samples, cytotoxicity control for PAX8 inhibitor project, dose response (AID 743045). The format is functional.
The nature of assay [22]: toxicity to human HepG2 hepatoma cells – cell-based, plate reader, dry powder samples, cytotoxicity control, dose response (AID 1159569).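 Also: inhibitor potency with signal falling toward the positive control level.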 In kind it is functional.
Assay [23] is described as follows: growth inhibition of yeast DHODH-expressing 3D7 parasites – SYBR Green, dry powder samples, dose response (AID 1159570).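 Also: parasite growth measured after 72 hours of compound exposure.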 The format is functional, cell-based.
The nature of assay [24]: growth inhibition of PfATP4-mutant resistant parasites – NITD609-resistant line, SYBR Green, dry powder, dose response (AID 1159571).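 Also: parasites synchronized at ring stage by sorbitol before testing.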 In kind it is functional, cell-based.
Assay [25] can be described thus: Dd2 malaria parasite growth inhibition potency – SYBR Green, dry powder samples, dose response (AID 1159566).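 Also: potency for growth inhibition with lower SYBR green DNA signal.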 The format is functional, cell-based.
Assay [26] in a line: Dd2 parasite growth inhibition in erythrocytes – SYBR Green, dry powder samples, set 9, dose response (AID 1159568). In kind it is functional, cell-based.

Activity calls are given as the source filed them.

Nonstructural protein 1, sequence (Q194T2 whole entry): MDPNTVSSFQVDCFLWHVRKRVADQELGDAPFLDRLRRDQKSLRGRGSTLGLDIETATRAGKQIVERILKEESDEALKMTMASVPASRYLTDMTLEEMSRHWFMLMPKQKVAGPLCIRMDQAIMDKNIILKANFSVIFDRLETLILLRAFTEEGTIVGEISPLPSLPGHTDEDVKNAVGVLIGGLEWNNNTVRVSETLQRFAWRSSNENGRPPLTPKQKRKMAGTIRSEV
Glutathione-S-transferase, sequence (Q26513 whole entry): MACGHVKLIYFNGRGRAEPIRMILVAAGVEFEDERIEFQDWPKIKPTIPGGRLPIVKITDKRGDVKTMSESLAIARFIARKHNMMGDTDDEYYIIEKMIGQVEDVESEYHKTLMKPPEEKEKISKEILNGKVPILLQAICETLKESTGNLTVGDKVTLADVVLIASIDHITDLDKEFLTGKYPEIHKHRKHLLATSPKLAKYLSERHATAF
Estrogen receptor beta, sequence (Q92731 whole entry): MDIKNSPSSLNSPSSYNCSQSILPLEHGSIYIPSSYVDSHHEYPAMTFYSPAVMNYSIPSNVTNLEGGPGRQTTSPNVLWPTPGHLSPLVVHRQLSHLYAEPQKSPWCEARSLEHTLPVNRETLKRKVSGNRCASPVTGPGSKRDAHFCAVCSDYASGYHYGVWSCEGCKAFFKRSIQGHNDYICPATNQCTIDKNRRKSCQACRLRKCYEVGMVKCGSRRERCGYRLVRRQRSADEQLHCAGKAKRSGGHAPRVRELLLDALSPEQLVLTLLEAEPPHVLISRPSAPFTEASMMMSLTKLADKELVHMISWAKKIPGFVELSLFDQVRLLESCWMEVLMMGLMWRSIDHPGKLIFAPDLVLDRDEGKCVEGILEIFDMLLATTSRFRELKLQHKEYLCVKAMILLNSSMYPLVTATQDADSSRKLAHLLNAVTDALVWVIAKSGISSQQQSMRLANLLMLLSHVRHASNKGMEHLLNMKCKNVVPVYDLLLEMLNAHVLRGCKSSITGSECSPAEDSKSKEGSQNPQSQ

What is called IC50 is the concentration that gives 50% inhibition. The AC50 is the concentration at which the activity in the assay is half-maximal. For the molecule `CN1CCN(c2ccc(N)cc2)CC1`, the IC50 was 18.4 µM (active) in [1]; 2.83 µM (active) in assay [3]; 32.3 µM (active) in [4]; 7.13 µM (not active) at Estrogen receptor beta; 53.7 µM (active) at Nonstructural protein 1. Besides, the results for the AC50 in assay [2] and in [5] were 21.9 µM (active) and 3.83 µM (active), respectively.

Take `CCOC(=O)c1oc2ccc(S(=O)(=O)n3nc(-c4ccccc4)cc3N)cc2c1C`: the half-maximal activity concentration (AC50) in [6] was 56.8 µM (active); in [8], 7.82 µM (active); in [11], 0.854 µM (active). Also, the IC50 is 1.01 µM (active) in assay [7] and 1.08 µM (active) in [10]. In assay [9], the AbsAC35_uM came out at 31.08 µM.

`Cc1cc(C(=O)N/N=C/c2cc(Br)ccc2OC(=O)c2ccccc2)[nH]n1`: the AC50 is 1.91 µM (active) in the assay with INS1, 16.6 µM (active) in assay [12] and 43.1 µM (active) in [13].

With `COc1ccc(C#Cc2ccc([C@@H]3[C@H](CO)N4CCCCN(C(=O)Nc5cccc(F)c5)C[C@@H]34)cc2)cc1`, the half-maximal activity concentration (AC50) was 6.45 µM (active) in [14]; 15.3 µM (active) in assay [15]; 40.6 µM (active) in assay [16]; 1.43 µM (active) in assay [17]; 18.1 µM (active) in assay [18]; 10 µM (active) in assay [19]. For the same molecule, the AC50 on Paired box protein Pax-8 was 9.89 µM (active); in assay [20], 10.5 µM (active); in [21] it was 16.3 µM (active).

As for `COc1ccc(C#Cc2ccc3c(c2)O[C@@H](CN(C)C(=O)Nc2cccc(OC)c2)[C@@H](C)CN([C@@H](C)CO)S3(=O)=O)cc1`, the AC50 was 1.09 µM (active) in [17]; > 100 µM (inactive) in [22]; 0.603 µM (active) in assay [23]; 0.556 µM (active) in [24]; 0.405 µM (active) in [25]; 0.399 µM (active) in assay [26].
